How the values were obtained:
[1] = molecular target: T1, guinea pig brain H3 receptor (Cavia porcellus, UniProt Q9JI35); assay: H3-receptor binding assay, guinea pig brain membranes; settings: [3H]R-α-methyl histamine or [3H]Nα-methyl histamine
T1 construct: The brain tissue was homogenized with a solution of 50 mM Tris, pH 7.5; from tissue; host or cells: guinea pig brain membranes
Procedure: (§1) The source of the H3 receptors in this experiment was guinea pig brain. Alternatively, the source of H3 receptors was recombinant human receptor, expressed in HEK-293 (human embryonic kidney) cells.
The animals weighed 400-600 g. The brain tissue was homogenized with a solution of 50 mM Tris, pH 7.5. The final concentration of tissue in the homogenization buffer was 10% w/v. The homogenates were centrifuged at 1,000×g for 10 min. in order to remove clumps of tissue and debris. The resulting supernatants were then centrifuged at 50,000×g for 20 min. in order to sediment the membranes, which were next washed three times in homogenization buffer (50,000×g for 20 min. each). The membranes were frozen and stored at −70° C. until needed.
All compounds to be tested were dissolved in DMSO and then diluted into the binding buffer (50 mM Tris, pH 7.5) such that the final concentration was 2 μg/ml with 0.1% DMSO. Membranes were then added (400 μg of protein, 5 μg in the case of recombinant human receptor) to the reaction tubes. The reaction was started by the addition of 3 nM [^3H]R-α-methyl histamine (8.8 Ci/mmol) or 3 nM [^3H]N^α-methyl histamine (80 Ci/mmol) and continued under incubation at 30° C. for 30 min. Bound ligand was separated from unbound ligand by filtration, and the amount of radioactive ligand bound to the membranes was quantitated by liquid scintillation spectrometry. […]

[2] = Effects on diet-induced obesity in mice (weight gain and food intake); assay type: in vivo; settings: mice on high-fat diet, 10 mg/kg by gavage once daily for four days, vs vehicle control
Procedure: Lean mice (male, approx. 5 weeks of age, purchased from The Jackson Laboratory, Bar Harbor, Me.) were maintained in individual cages at 22° C. on a 12:12 hr light/dark cycle. The “treated” mice (N=12) were administered a Thiazole Derivative (10 mg/kg) by gavage once daily for four consecutive days. Control mice (N=12) were administered vehicle only, once daily for four days. Both control and treated mice were fed a high-fat diet from days 0 to 4 and body weight and food intake were monitored daily. The percent inhibition for weight gain and food intake was calculated by comparing the increase in weight gain and food intake in the treated mice to the increase in weight gain and food intake in the control mice.
Compound numbers correspond to the compound numbering set forth in the specification.

[3] = molecular target: T2, recombinant human H3 receptor (Homo sapiens, UniProt Q9Y5N1); assay: H3-receptor binding assay, recombinant human receptor expressed in HEK-293 cells; settings: [3H]R-α-methyl histamine or [3H]Nα-methyl histamine
T2 construct: expressed in transfected cells; host or cells: HEK-293 (human embryonic kidney) cells
T2 sequence (Q9Y5N1 whole entry): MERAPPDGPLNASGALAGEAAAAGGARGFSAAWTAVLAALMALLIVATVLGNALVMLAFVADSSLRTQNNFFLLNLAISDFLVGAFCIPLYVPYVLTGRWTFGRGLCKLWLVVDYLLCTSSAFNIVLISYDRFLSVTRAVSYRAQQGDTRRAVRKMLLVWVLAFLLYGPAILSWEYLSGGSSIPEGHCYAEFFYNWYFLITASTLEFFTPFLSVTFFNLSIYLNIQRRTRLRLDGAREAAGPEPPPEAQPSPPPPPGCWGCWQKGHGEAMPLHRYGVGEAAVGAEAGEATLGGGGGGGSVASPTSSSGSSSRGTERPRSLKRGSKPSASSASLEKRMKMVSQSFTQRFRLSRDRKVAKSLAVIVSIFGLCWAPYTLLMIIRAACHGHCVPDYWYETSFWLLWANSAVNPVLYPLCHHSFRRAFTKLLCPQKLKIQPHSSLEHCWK
Procedure: as §1
All compounds to be tested were dissolved in DMSO and then diluted into the binding buffer (50 mM Tris, pH 7.5) such that the final concentration was 2 μg/ml with 0.1% DMSO. Membranes were then added (400 μg of protein, 5 μg in the case of recombinant human receptor) to the reaction tubes. The reaction was started by the addition of 3 nM [^3H]R-α-methyl histamine (8.8 Ci/mmol) or 3 nM [^3H]N^α-methyl histamine (80 Ci/mmol) and continued under incubation at 30° C. for 30 min. Bound ligand was separated from unbound ligand by filtration, and the amount of radioactive ligand bound to the membranes was quantitated by liquid scintillation spectrometry. All incubations were performed in duplicate and the standard error was always less than 10%. Compounds that inhibited more than 70% of the specific binding of radioactive ligand to the receptor were serially diluted to determine a Ki (nM).

T1 sequence (Q9JI35 whole entry): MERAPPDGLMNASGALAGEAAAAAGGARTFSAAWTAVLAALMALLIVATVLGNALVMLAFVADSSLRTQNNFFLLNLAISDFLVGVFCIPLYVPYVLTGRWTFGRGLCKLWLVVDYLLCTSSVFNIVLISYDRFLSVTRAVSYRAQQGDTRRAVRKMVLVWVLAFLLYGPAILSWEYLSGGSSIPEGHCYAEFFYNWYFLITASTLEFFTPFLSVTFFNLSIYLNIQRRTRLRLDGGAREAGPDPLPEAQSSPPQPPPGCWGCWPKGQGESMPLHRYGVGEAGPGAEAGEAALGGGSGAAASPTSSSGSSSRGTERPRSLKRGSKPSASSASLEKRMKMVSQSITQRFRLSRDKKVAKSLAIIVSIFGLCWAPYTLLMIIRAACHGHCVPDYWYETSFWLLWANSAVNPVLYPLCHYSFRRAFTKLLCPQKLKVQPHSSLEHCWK

| Ki [1] [nM] | Ki [3] [nM] | SMILES | Food intake Inhibition (%) [2] [%] | Weight Gain Inhibition (%) [2] [%] |
| --- | --- | --- | --- | --- |
| 2 | – | Cc1cccc(C)c1NC(=O)N1CCN(C(=O)c2ccc(Nc3ccncc3)cc2)CC1 [Compound 54A] | – | – |
| – | 3 | O=C(c1ccc(Nc2ccncc2)cc1)N1CCC(n2c(-c3ccccn3)nc3cccnc32)CC1 [Compound 59A] | 1.1 | 21.0 |
| – | – | Nc1cc(Nc2ccc(C(=O)N3CCC(n4c(-c5ccccn5)nc5cccnc54)CC3)cc2)ccn1 [Compound 160A] | 18.3 | 33.0 |

Reference: US7879880B2, “Substituted aniline derivatives useful as histamine H3 antagonists” (Schering Corporation, priority 2005, dated 2011)
